For 13 molecules, IC50 results are on record in patent US7799803B2, “Hydroxamic acid compounds and methods of use thereof” (The Trustees of Columbia University in the City of New York, priority 2003, dated 2010).

Where two headings read alike, the source gives them in different places.

Test [1] relates to human bladder carcinoma cell line, T24. As to the kind of experiment: T24 cell-based proliferation assay. The note with it: T-24, T24 cells treated 72 hours, DNA quantitated with bisbenzamide, Table 3, read-out: Cell Growth Inhbition, IC50. On the procedure: Proliferation The novel compounds of the present invention were tested for their ability to inhibit growth of the human bladder carcinoma cell line, T24. Cells were treated with compounds for 72 hours, lysed by freeze/thaw to expose the DNA, and then the DNA was quantitated using the intercalating dye, bisbenzamide (Sigma). Fluorescent intensity (ex 350λ em 460λ) was directly proportional to the number of cells per well. Fluorescence values from vehicle-treated cells were determined and used as 100%.

Test [2] addresses T1, histone deacetylase, subtype 1 (HDAC1) (Homo sapiens, UniProt Q13547).
T1 construct: Flag; made in house
As to the kind of experiment: HDAC1-Flag in vitro deacetylation assay. The format is biochemical. On the procedure: Novel compounds were tested for their ability to inhibit histone deacetylase, subtype 1 (HDAC1) using an in vitro deacetylation assay. The enzyme source for this assay was an epitope-tagged human HDAC1 complex immuno-purified from stably expressing mammalian cells. The substrate consisted of a commercial product containing an acetylated lysine side chain (Biomol, Plymouth Meeting, Pa.). Upon deacetylation of the substrate by incubation with the purified HDAC1 complex, a fluorophore is produced that is directly proportional to the level of deacetylation. Using a substrate concentration at the Km for the enzyme preparation, the deacetylation assay was performed in the presence of increasing concentrations of novel compounds to semi-quantitatively determine the concentration of compound required for 50% inhibition (IC50) of the deacetylation reaction.

[3] abbreviates: epitope-tagged human HDAC1 complex, substrate concentration at Km, Table 2, read-out: HDAC Inhibition IC50.
Where [4] appears, read: Table 4, additional compounds, n = 2, read-out: HDAC inhibition IC50.

T1 sequence (Q13547 whole entry): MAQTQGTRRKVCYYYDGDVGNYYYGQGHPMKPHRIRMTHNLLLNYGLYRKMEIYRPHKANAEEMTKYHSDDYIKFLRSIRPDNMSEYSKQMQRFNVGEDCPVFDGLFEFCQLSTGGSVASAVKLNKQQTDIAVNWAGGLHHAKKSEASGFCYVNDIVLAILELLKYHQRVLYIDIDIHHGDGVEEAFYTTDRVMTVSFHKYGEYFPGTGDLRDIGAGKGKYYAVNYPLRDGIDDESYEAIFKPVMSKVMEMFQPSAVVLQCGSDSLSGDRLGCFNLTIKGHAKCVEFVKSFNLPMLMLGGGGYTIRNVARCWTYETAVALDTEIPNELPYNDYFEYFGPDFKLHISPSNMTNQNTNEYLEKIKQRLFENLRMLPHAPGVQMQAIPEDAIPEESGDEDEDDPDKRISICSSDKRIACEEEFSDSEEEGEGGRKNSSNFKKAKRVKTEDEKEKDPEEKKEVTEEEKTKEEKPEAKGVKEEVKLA

The IC50 is the concentration needed to halve the response being measured. As to `O=C(CCCCC[C@H](NC(=O)OCc1ccccc1)C(=O)NCc1ccccc1)NO` [Compound 2], the IC50 in test [1] was found to be 1400 nM; in test [2] (setting [3]) it was 37.4 nM. Regarding `O=C(CCCCC[C@H](NC(=O)c1ccc2ccccc2n1)C(=O)NCc1ccccc1)NO` [Compound 3], the IC50 was 1700 nM in test [1] and 52.7 nM in test [2] (setting [3]). In the same order, the values of `O=C(CCCCC[C@H](NC(=O)c1ccccc1)C(=O)NCc1ccccc1)NO` [Compound 4] are 3200 nM and 73 nM. In the same order, the values of `O=C(CCCCC[C@H](NC(=O)c1cccnc1)C(=O)NCc1ccccc1)NO` [Compound 5] are 9200 nM and 150 nM. `O=C(CCCCC[C@H](NC(=O)OCc1ccccc1)C(=O)Nc1ccc2ncccc2c1)NO` [Compound 6a, (S)-[6-HYDROXYCARBAMOYL-1-(QUINOLIN-6-YLCARBAMOYL)-HEXYL]-CARBAMIC ACID BENZYL ESTER]: the IC50 in test [1] came out at 200 nM; in test [2] (setting [3]) it was 5.9 nM. The corresponding values for `O=C(CCCCC[C@H](NC(=O)c1ccccc1)C(=O)Nc1ccc2ncccc2c1)NO` [Compound 6b, (2S)-2-BENZOYLAMINO-OCTANEDIOIC ACID 8-HYDROXYAMIDE 1-QUINOLIN-6-YLAMIDE] are 200 nM and 1.8 nM. In the same order, the values of `O=C(CCCCC[C@H](NC(=O)c1ccc2ccccc2n1)C(=O)Nc1ccc2ncccc2c1)NO` [Compound 7] are 600 nM and 54.5 nM.

For the molecule `O=C(CCCCC[C@H](NC(=O)c1cccnc1)C(=O)Nc1ccc2ncccc2c1)NO` [Compound 8], the IC50 in test [1] was determined as 1800 nM; in test [2] (setting [3]), 1.6 nM. In the same order, the values of `O=C(CCCCC[C@H](NC(=O)c1cccnc1)C(=O)Nc1cccc2cccnc12)NO` [Compound 9] are 400 nM and 4.1 nM. In the case of `O=C(CCCCC[C@H](NC(=O)c1ccc2ccccc2n1)C(=O)Nc1cccc2cccnc12)NO` [Compound 10], the IC50 in test [1] turned out to be 1400 nM; in test [2] (setting [3]) it was 41.8 nM. The corresponding values for `O=C(CCCCC[C@H](NC(=O)c1ccccc1)C(=O)Nc1cccc2cccnc12)NO` [Compound 11] are 300 nM and 12.7 nM. With `O=C(CCCCCC(C(=O)NCc1ccccc1)C(=O)NCc1ccccc1)NO` [Compound 12], the 50% inhibitory concentration (IC50) in test [2] (setting [4]) turned out to be 156 ± 22.6 nM. The same measure, in the same setting: the result for `O=C(CCCCCC(C(=O)NCCc1ccccc1)C(=O)NCCc1ccccc1)NO` [Compound 13] reads 186 ± 21.9 nM.
